Values quoted from earlier work as cited in patent US20200261422A1, “METHODS FOR […] […] HUMAN PATIENTS USING I[…]-2 […]” (Massachusetts Institute of Technology, priority 2019, published 2020).

Columns and labels:
[1] = test system: effects of dexmedetomidine (α2 adrenergic receptor agonist); details: intramuscular injection; dexmedetomidine e.g. DEXDOMITOR and DEXDOMITOR 0.1
[2] = in vivo

terminal elimination half-life [2]	SMILES	time to reverse the effects of dexmedetomidine [1] [min]
	CCC1(c2cnc[nH]2)Cc2ccccc2C1 [atipamezole, 4-(2-ethyl-2,3-dihydro-1H-inden-2-yl)-1H-imidazole]	5 to 10
about 2 hours	Cc1cccc([C@H](C)c2cnc[nH]2)c1C [dexmedetomidine, Dexmedetomidine]	
